Test results taken from patent US5977169A, “Substituted tetronic acids useful for treating HIV and other retroviruses” (priority 1997, dated 1999).

Target: T1, HIV-1 protease (Human immunodeficiency virus type 1 group M subtype B, UniProt P04585)
T1 construct: The protease (or proteinase) enzyme, consisting of only 99 amino acids
Assay: In vitro HIV protease inhibitory assay (fluorescently labeled substrate, avidin-polystyrene particles)
Assay type: biochemical
Settings: for inhibition at 3.3 µM: HIV-1 dose 3.3 μM; for inhibition at 10 µM: HIV-1 dose 10.0 μM; for inhibition at 30 µM: HIV-1 dose 30.0 μM; for inhibition at 1 µM: HIV-1 dose 1.0 μM; for inhibition at 100 µM: HIV-1 dose 100.0 μM; for inhibition at 1.1 µM: HIV-1 dose 1.1 μM
Procedure: The HIV protease screening assay is based on a fluorescently labeled substrate which can be resolved from nonlabeled cleavage product using avidin-polystyrene particles, 0.7-0.9 μm. The substrate is biotinylated at the amino terminal arginine and fluorescently labeled with fluorescein isothiocynate (FITC) at the carboxyl terminal lysine. This assay has been employed to detect novel, nonpeptidic inhibitors of HIV-1 protease. Substrate (20 μl of 0.2 μM), sample (10 μl of desired concentraion), and enzyme (10 μl of 0.1 μM) are added to a 96 well pandex plate. The assay is run in 0.1 M sodium acetate buffer at pH 5.5 in the presence of 1.0 M sodium chloride and 0.05% NP-40 and incubated in the dark for one hour at room temperature. Avidin coated polystyrene beads (40 μl of 0.1% (w/v)) are added and the incubation is continued in the dark for an additional half hour. The labeled cleavage product is separated from the unreacted substrate via filtration and is read on the IDEXX Screen Machine. (IDEXX Corporation--Portland, Me.) The data are analyzed by appropriate computer algorithms to ascertain percent inhibition values.
The Activity Table showing the results of the HIV Protease Inhibitory Assay appears below in TABLE 1. The table has three columns, the left column provides the code number of the compound for easy cross reference to structure tables and detailed procedures, the middle column provides the concentration of test compound and the column on the right provides the percent inhibition.

inhibition at 3.3 µM [%] | inhibition at 10 µM [%] | inhibition at 30 µM [%] | inhibition at 1 µM [%] | inhibition at 100 µM [%] | inhibition at 1.1 µM [%] | inhibition at 3.7 µM (HIV-1 dose 3.7 μM) [%] | inhibition at 11 µM (HIV-1 dose 11.0 μM) [%] | Compound
74.6 | 89.2 | 74 |  |  |  |  |  | CCCCC(CCc1ccccc1)C1OC(=O)C(C(c2ccccc2)C2CC2)=C1O (single isomer, unassigned) [GX-1, 2(5H)-Furanone, 3-(cyclopropylphenylmethyl)-4-hydroxy-5-(1-(2-phenyl-ethyl)pentyl)-]
99 | 99.4 | 97.6 |  |  |  |  |  | CCC1CCCCC12OC(=O)C(C(c1ccccc1)C1CC1)=C2O (single isomer, unassigned) [IX-33, 1-Oxaspiro[4.5]dec-3-en-2-one, 3-(cyclopropylphenylmethyl)-4-hydroxy-6-ethyl-]
108 | 106 | 105 |  |  |  |  |  | CCCC1(CCCc2ccccc2)OC(=O)C(C(c2ccccc2)C2CC2)=C1O (stereo not drawn) [DX-1, 2(5H)-Furanone, 3-(cyclopropylphenylmethyl)-4-hydroxy-5-(3-phenyl-propyl)-5-propyl-]
94.5 | 98.2 | 104 |  |  |  |  |  | CC1(Cc2ccccc2)OC(=O)C(C(c2ccccc2)C2CC2)=C1O (stereo not drawn) [DX-2, 2(5H)-Furanone, 3-(cyclopropylphenylmethyl)-4-hydroxy-5-methyl-5-(phenyl-methyl)-]
95.5 | 103 | 105 |  |  |  |  |  | CCC1(Cc2ccccc2)OC(=O)C(C(c2ccccc2)C2CC2)=C1O (stereo not drawn) [DX-3, 2(5H)-Furanone, 3-(cyclopropylphenylmethyl)-5-ethyl-4-hydroxy-5-(phenyl-methyl)-]
125 | 128 | 116 |  |  |  |  |  | CCCC1(Cc2ccccc2)OC(=O)C(C(c2ccccc2)C2CC2)=C1O (stereo not drawn) [DX-4, 2(5H)-Furanone, 3-(cyclopropylphenylmethyl)-4-hydroxy-5-(phenyl-methyl)-5-propyl-]
103 | 116 | 103 |  |  |  |  |  | O=C1OC(Cc2ccccc2)(Cc2ccccc2)C(O)=C1C(c1ccccc1)C1CC1 (stereo not drawn) [DX-5, 2(5H)-Furanone, 3-(cyclopropylphenylmethyl)-4-hydroxy-5,5-bis(phenylmethyl)-]
103 | 102 | 104 |  |  |  |  |  | CCCC1(Cc2cccnc2)OC(=O)C(C(c2ccccc2)C2CC2)=C1O (stereo not drawn) [DX-6, 2(5H)-Furanone, 3-(cyclopropylphenylmethyl)-4-hydroxy-5-propyl-5-(3--pyridinylmethyl)-]
108 | 112 | 103 |  |  |  |  |  | CCC1(CCc2ccccc2)OC(=O)C(C(c2ccccc2)C2CC2)=C1O (stereo not drawn) [DX-7, 2(5H)-Furanone, 3-(cyclopropylphenylmethyl)-5-ethyl-4-hydroxy-5-(2-phenyl-ethyl)-]
114 | 109 | 103 |  |  |  |  |  | CCCC1(CCc2ccccc2)OC(=O)C(C(c2ccccc2)C2CC2)=C1O (stereo not drawn) [DX-8, 2(5H)-Furanone, 3-(cyclopropylphenylmethyl)-4-hydroxy-5-(2-phenyl-ethyl)-5-propyl-]
86.7 | 104 | 99.8 |  |  |  |  |  | O=C1OC(CCc2ccccc2)(CCc2ccccc2)C(O)=C1C(c1ccccc1)C1CC1 (stereo not drawn) [DX-9, 2(5H)-Furanone, 3-(cyclopropylphenylmethyl)-4-hydroxy-5,5-bis(2-phenylethyl)-]
112 | 104 | 91.5 |  |  |  |  |  | CC1(CCCc2ccccc2)OC(=O)C(C(c2ccccc2)C2CC2)=C1O (stereo not drawn) [DX-10, 2(5H)-Furanone, 3-(cyclopropylphenylmethyl)-4-hydroxy-5-methyl-5-(3-phenyl-propyl)-]
101 | 111 | 105 |  |  |  |  |  | CCC1(CCCc2ccccc2)OC(=O)C(C(c2ccccc2)C2CC2)=C1O (stereo not drawn) [DX-11, 2(5H)-Furanone, 3-(cyclopropylphenylmethyl)-5-ethyl-4-hydroxy-5-(3-phenyl-propyl)-]

More lines, now with the values behind:

Compound | inhibition at 3.3 µM [%] | inhibition at 10 µM [%] | inhibition at 30 µM [%] | inhibition at 1 µM [%] | inhibition at 100 µM [%] | inhibition at 1.1 µM [%] | inhibition at 3.7 µM (HIV-1 dose 3.7 μM) [%] | inhibition at 11 µM (HIV-1 dose 11.0 μM) [%]
O=C1OC(Cc2ccccc2)C(O)=C1C(c1ccccc1)C1CC1 (stereo not drawn) [BX-1, 5H-Furan-2-one, 5-benzyl-3-cyclopropylphenylmethyl-4-hydroxy-] |  | 80.1 |  | 18.7 | 90.5 |  |  | 
O=C1OC(CCc2ccccc2)C(O)=C1C(c1ccccc1)C1CC1 (stereo not drawn) [BX-2, 2(5H)-Furanone, 3(cyclopropylphenylmethyl)-4-hydroxy-5-(2-phenylethyl)-] |  | 81 |  | 47.2 | 81.4 |  |  | 
O=C1OC(CCCc2ccccc2)C(O)=C1C(c1ccccc1)C1CC1 (stereo not drawn) [BX-3, 2(5H)-Furanone, 3-(cyclopropylphenylmethyl)-4-hydroxy-5-(3-phenylpropyl)-] |  | 90.6 |  | 46 | 93.2 |  |  | 
CCCC1OC(=O)C(C(c2ccccc2)C2CC2)=C1O (stereo not drawn) [BX-4, 2(5H)-Furanone, 3-(cyclopropylphenylmethyl)-4-hydroxy-5-propyl-] |  | 61.1 |  | < 10 | 83.3 |  |  | 
O=C1OC(CCC2CCCCC2)C(O)=C1C(c1ccccc1)C1CC1 (stereo not drawn) [BX-5, 2(5H)-Furanone, 5-(2-cyclohexylethyl)-3-(cyclopropylphenylmethyl)-4-hydroxy-] |  | 61.2 |  | 12.6 | 71.5 |  |  | 
O=C1OC(CC=Cc2ccccc2)C(O)=C1C(c1ccccc1)C1CC1 (stereo not drawn) [BX-6, 2(5H)-Furanone, 3-(cyclopropylphenylmethyl)-4-hydroxy-5-(3-phenyl-2-propenyl)-] | 65.7 | 77.2 | 82.1 |  |  |  |  | 
O=C1OC(C(O)C=Cc2ccccc2)C(O)=C1C(c1ccccc1)C1CC1 (stereo not drawn) [BX-7, 2(5H)-Furanone, 3-(cyclopropylphenylmethyl)-4-hydroxy-5-(1-hydroxy-3--phenyl-2-propenyl)-] | < 10 | 18 | 40 |  |  |  |  | 
O=C1OC(C(O)CCc2ccccc2)C(O)=C1C(c1ccccc1)C1CC1 (stereo not drawn) [BX-8, 2(5H)-Furanone, 3-(cyclopropylphenylmethyl)-4-hydroxy-5-(1-hydroxy-3--phenylpropyl)-] | 51 | 73.3 | 78.2 |  |  |  |  | 
CCC(C1=C(O)C(Cc2ccccc2)OC1=O)c1ccccc1 (stereo not drawn) [BX-9, 2(5H)-Furanone, 4-hydroxy-5-(phenylmethyl)-3-(1-phenylpropyl)-] | 50.1 | 75.1 | 86.1 |  |  |  |  | 
CC(C)C1OC(=O)C(C(c2ccccc2)C2CC2)=C1O (stereo not drawn) [BX-10, 2(5H)-Furanone, 3-(cyclopropylphenylmethyl)-4-hydroxy-5-(1-methylethyl)-] | 40.5 | 74.6 | 98.6 |  |  |  |  | 
CCCCC1OC(=O)C(C(c2ccccc2)C2CC2)=C1O (stereo not drawn) [BX-11, 2(5H)-Furanone, 5-butyl-3-(cyclopropylphenylmethyl)-4-hydroxy-] | 45.1 | 78.3 | 93.4 |  |  |  |  | 
CCCC1(CCC)OC(=O)C(C(c2ccccc2)C2CC2)=C1O (stereo not drawn) [BX-12, 2(5H)-Furanone, 3-(cyclopropylphenylmethyl)-4-hydroxy-5,5-dipropyl-] | 110 | 112 | 95.3 |  |  |  |  | 
CC(C)C1(C(C)C)OC(=O)C(C(c2ccccc2)C2CC2)=C1O (stereo not drawn) [BX-13, 2(5H)-Furanone, 3-(cyclopropylphenylmethyl)-4-hydroxy-5,5-bis(1-methylethyl)-] | 104 | 108 |  |  |  | 94.1 |  | 
CCC1(CC)OC(=O)C(C(c2ccccc2)C2CC2)=C1O (stereo not drawn) [BX-14, 2(5H)-Furanone, 3-(cyclopropylphenymethyl)-5,5-diethyl-4-hydroxy-] | 92.7 | 94 | 99 |  |  |  |  | 
CCCCC1(CCCC)OC(=O)C(C(c2ccccc2)C2CC2)=C1O (stereo not drawn) [BX-15, 2(5H)-Furanone, 5,5-dibutyl-3-(cyclopropylphenylmethyl)-4-hydroxy-] | 115 | 118 | 122 |  |  |  |  | 
CCC(C1=C(O)C(CCc2ccccc2)OC1=O)c1ccccc1 (stereo not drawn) [BX-16, 2(5H)-Furanone, 4-hydroxy-5-(2-phenylethyl)-3-(1-phenylpropyl)-] | 41.4 | 71.4 | 80.3 |  |  |  |  | 
O=C1OC2(CCCC2)C(O)=C1C(c1ccccc1)C1CC1 (stereo not drawn) [CX-1, 1-Oxaspiro[4.4]non-3-en-2-one, 3-(cyclopropylphenylmethyl)-4-hydroxy-] |  |  |  |  | 109 |  | 109 | 115
O=C1OC2(CCCCCCC2)C(O)=C1C(c1ccccc1)C1CC1 (stereo not drawn) [CX-2, 1-Oxaspiro[4.7]dodec-3-en-2-one, 3-(cyclopropylphenylmethyl)-4-hydroxy-] |  | 104 | 110 |  |  | 96 |  | 
CC1(CCc2ccccc2)OC(=O)C(C(c2ccccc2)C2CC2)=C1O (stereo not drawn) [CX-3, 2(5H)-Furanone, 3-(cyclopropylphenylmethyl)-4-hydroxy-5-methyl-5-(2--phenylethyl)-] | 98.1 | 111 | 118 |  |  |  |  | 
